# pEC50: −log10 of the molar value.
# Key:
# Hepatitis B virus [1] = assay: Antiviral activity against wild type HBV infected in human HepG2 2.2.15 cells assessed as reduction in viral replication pre incubated for 3 days followed by replacement with fresh compounds for another 3 days prior to pronase treatment by RT-qPCR analysis; assay type: functional, organism-based, HepG2.2.15; settings: for pEC50: HepG2.2.15; for EC90: HepG2.2.15, 144 h, time 6 day
# HepG2 2.2.15 [2] = assay: Cytotoxicity against human HepG2.2.15 cells assessed as reduction in cell viability; assay type: functional
# Human betaherpesvirus 5 [3] = assay: Antiviral activity against HCMV AD-169 infected in HFF cells assessed as reduction in viral replication measured after 14 days; assay type: functional, organism-based; settings: Human betaherpesvirus 5, AD-169, HFF, 336 h; for EC90: time 14 day
# [4] = Cytotoxicity against human HFF cells infected with HCMV AD-169 virus assessed as reduction in cell viability by cell titer-glo assay; assay type: toxicity, cell-based
# [5] = (§1) Selectivity index, ratio of CC50 for cytotoxicity against human HFF cells infected with HCMV AD-169 virus assessed as reduction in cell viability by cell titer-glo assay to EC50 for antiviral activity against HCMV AD-169 infected in HFF cells assessed as inhibition of virus-induced cytopathic effect measured after 14 days; assay type: toxicity, cell-based; settings: read-out: Ratio CC50/EC50
# Human alphaherpesvirus 3 [6] = assay: Antiviral activity against VZV Ellen infected in HFF cells assessed as reduction in viral replication measured after 14 days; assay type: functional, organism-based; settings: Human alphaherpesvirus 3, Ellen, 336 h; for EC90: time 14 day
# [7] = Cytotoxicity against human HFF cells infected with VZV Ellen virus assessed as reduction in cell viability by cell titer-glo assay; assay type: toxicity, cell-based
# [8] = as §1, with “VZV Ellen” for “HCMV AD-169”; assay type: toxicity, cell-based; settings: read-out: Ratio CC50/EC50
# [9] = tested on: Human immunodeficiency virus 1; assay: Anti-HIV activity against wild type HIV-1 IIIB infected in human MT4 cells assessed as inhibition of HIV-induced cytopathic effect measured after 5 days by MTT assay; assay type: functional, organism-based; settings: Human immunodeficiency virus 1, IIIB, MT4, 120 h
# [10] = tested on: Human immunodeficiency virus 2; assay: Anti-HIV activity against wild type HIV-2 ROD infected in human MT4 cells assessed as inhibition of HIV-induced cytopathic effect measured after 5 days by MTT assay; assay type: functional, organism-based; settings: Human immunodeficiency virus 2, ROD, MT4, 120 h
# [11] = Cytotoxicity against human MT4 cells assessed as reduction in cell viability by MTT assay; assay type: toxicity, cell-based
# [12] = (§2) Selectivity index, ratio of CC50 for cytotoxicity against human MT4 cells assessed as reduction in cell viability by MTT assay to EC50 for anti-HIV activity against wild type HIV-1 IIIB infected in human MT4 cells assessed as inhibition of HIV-induced cytopathic effect measured after 5 days by MTT assay; assay type: toxicity, cell-based; settings: read-out: Ratio CC50/EC50
# [13] = as §2, with “HIV-2 ROD” for “HIV-1 IIIB”; assay type: toxicity, cell-based; settings: read-out: Ratio CC50/EC50
# HepG2 2.2.15 [14] = assay: Cytotoxicity against human HepG2.2.15 cells assessed as reduction in cell viability by neutral red uptake assay; assay type: functional
# Hepatitis B virus [15] = assay: Antiviral activity against wild type HBV infected in human HepG2 2.2.15 cells assessed as reduction in viral replication by DNA HYB (Vision)/neutral red (Tox) assay; assay type: functional, organism-based; settings: HepG2.2.15
# Hepatitis B virus [16] = assay: Antiviral activity against wild type HBV infected in human HepG2 2.2.15 cells assessed as reduction in viral replication by DNA HYB (RI)/neutral red (Tox) assay; assay type: functional, organism-based; settings: HepG2.2.15
# [17] = Selectivity index, ratio of CC50 cytotoxicity against human HepG2.2.15 cells assessed as reduction in cell viability to EC50 for antiviral activity against wild type HBV infected in human HepG2 2.2.15 cells assessed as reduction in viral replication by DNA HYB (Vision)/neutral red (Tox) assay; assay type: toxicity, cell-based; settings: read-out: Selectivity Index
# [18] = Selectivity index, ratio of CC50 cytotoxicity against human HepG2.2.15 cells assessed as reduction in cell viability to EC50 for antiviral activity against wild type HBV infected in human HepG2 2.2.15 cells assessed as reduction in viral replication by DNA HYB (RI)/neutral red (Tox) assay; assay type: toxicity, cell-based; settings: read-out: Selectivity Index
# Human betaherpesvirus 5 [19] = assay: Antiviral activity against HCMV AD-169 infected in HEL cells assessed as reduction in virus plaque formation; assay type: functional, organism-based; settings: Human betaherpesvirus 5, AD-169, HEL
# Human betaherpesvirus 5 [20] = assay: Antiviral activity against HCMV Davis infected in HEL cells assessed as reduction in virus plaque formation; assay type: functional, organism-based; settings: Human betaherpesvirus 5, Davis
# Human alphaherpesvirus 3 [21] = assay: Antiviral activity against VZV TK+ infected in HEL cells assessed as reduction in virus plaque formation; assay type: functional, organism-based; settings: Human alphaherpesvirus 3, TK+
# Human alphaherpesvirus 3 [22] = assay: Antiviral activity against VZV TK- infected in HEL cells assessed as reduction in virus plaque formation; assay type: functional, organism-based; settings: Human alphaherpesvirus 3, TK-
# [23] = Cytotoxicity against human HEL cells assessed as change in cell morphology measured after 3 days […]; assay type: toxicity, cell-based; settings: time 3 day
# HepG2 2.2.15 [24] = assay: Cytotoxicity against human HepG2.2.15 cells assessed as reduction in cell viability incubated for 1 to 4 hrs by MTS uptake assay; assay type: functional; settings: time 1-4 hrs
# [25] = Cytotoxicity against human HEL cells assessed as reduction in cell growth measured after 3 days by coulter counting method; assay type: toxicity, cell-based; settings: time 3 day
Compound,pEC50 (Hepatitis B virus [1]),CC50 (HepG2 2.2.15 [2]),pEC50 (Human betaherpesvirus 5 [3]),EC90 (Human betaherpesvirus 5 [3]),CC50 [4],pEC50 [9],pEC50 [10],CC50 [11],selectivity ratio at 120 h [12],selectivity ratio at 120 h [13],EC90 (Hepatitis B virus [1]),CC50 (HepG2 2.2.15 [14]),pEC50 (Human betaherpesvirus 5 [19]),pEC50 (Human betaherpesvirus 5 [20]),pEC50 (Human alphaherpesvirus 3 [21]),pEC50 (Human alphaherpesvirus 3 [22]),MCC at 72 h [23],CC50 (HepG2 2.2.15 [24]),also measured
C#C[C@](CO)(Cn1cnc2c(=O)[nH]c(N)nc21)OCP(=O)(O)O,6.30,> 100 µM,,,,,,,,,,,,,,,,,
C#CC(CO)(Cn1cnc2c(=O)[nH]c(N)nc21)OCP(=O)(O)O (centres undefined),6.43,> 100 µM,4.84,> 150 µM,> 150 µM,5.43,5.89,> 364 µM,> 97,> 287,0.83 µM,> 100 µM,,,,,,,selectivity ratio at 336 h [5]: > 10; pEC50 (Human alphaherpesvirus 3 [6]): 3.94; EC90 (Human alphaherpesvirus 3 [6]): > 150 µM; CC50 [7]: > 150 µM; selectivity ratio at 336 h [8]: > 1; pEC50 (Hepatitis B virus [15]): 6.51; EC90 (Hepatitis B virus [15]): 0.8 µM; pEC50 (Hepatitis B virus [16]): 6.27; EC90 (Hepatitis B virus [16]): 1.8 µM; selectivity ratio [17]: > 322; selectivity ratio [18]: > 185
C#C[C@@](CO)(Cn1cnc2c(=O)[nH]c(N)nc21)OCP(=O)(N[C@@H](Cc1ccccc1)C(=O)OCCC)N[C@@H](Cc1ccccc1)C(=O)OCCC,8.03,> 100 µM,,,,,,,,,,,,,,,,,
C[C@](CO)(Cn1cnc2c(=O)[nH]c(N)nc21)OCP(=O)(O)O,6.48,> 100 µM,,,,,,,,,,,,,,,,,
C[C@@](CO)(Cn1cnc2c(=O)[nH]c(N)nc21)OCP(=O)(O)O,7.37,> 100 µM,,,,,,,,,,,,,,,,,
C#C[C@@](CO)(Cn1cnc2c(=O)[nH]c(N)nc21)OCP(=O)(O)O,7.73,> 100 µM,,,,,,,,,,,,,,,,,
C#CC(CO)(Cn1ccc(N)nc1=O)OCP(=O)(O)O (racemic),< 4.00,,4.52,> 30 µM,132 µM,< 3.38,< 3.38,> 412 µM,1,1,> 100 µM,> 100 µM,,,,,,,selectivity ratio at 336 h [5]: < 4; pEC50 (Human alphaherpesvirus 3 [6]): 4.81; EC90 (Human alphaherpesvirus 3 [6]): > 150 µM; CC50 [7]: > 150 µM; selectivity ratio at 336 h [8]: > 10
Cc1cn(CC(C)(CO)OCP(=O)(O)O)c(=O)[nH]c1=O (racemic),< 4.00,,,,,< 3.39,< 3.39,> 406 µM,1,1,> 100 µM,,< 3.49,< 3.49,< 3.49,3.60,> 324 µM,> 100 µM,
C#CC(CO)(Cn1cnc2c(N)ncnc21)OCP(=O)(O)O (racemic),4.60,,4.52,> 30 µM,145 µM,4.58,4.74,> 382 µM,> 14,> 21,62 µM,> 100 µM,,,,,,,selectivity ratio at 336 h [5]: < 5; pEC50 (Human alphaherpesvirus 3 [6]): < 4.52; EC90 (Human alphaherpesvirus 3 [6]): > 30 µM; CC50 [7]: 131 µM; selectivity ratio at 336 h [8]: < 4
C#CC(CO)(Cn1cc(C)c(=O)[nH]c1=O)OCP(=O)(O)O (racemic),< 4.00,,4.52,> 30 µM,140 µM,< 3.41,< 3.41,> 393 µM,1,1,> 100 µM,> 100 µM,,,,,,,selectivity ratio at 336 h [5]: < 5; pEC50 (Human alphaherpesvirus 3 [6]): 4.57; EC90 (Human alphaherpesvirus 3 [6]): > 30 µM; CC50 [7]: 139 µM; selectivity ratio at 336 h [8]: 5
CC(CO)(Cn1cnc2c(=O)[nH]c(N)nc21)OCP(=O)(O)O (racemic),6.85,,,,,4.49,4.38,228 µM,7,5,38.1 µM,,5.27,5.27,5.62,5.44,300 µM,> 100 µM,CC50 at 72 h [25]: 21.6 µM
C#CC(CO)(Cn1ccc(=O)[nH]c1=O)OCP(=O)(O)O (racemic),4.68,,3.82,> 150 µM,> 150 µM,< 3.39,< 3.39,> 411 µM,1,1,77 µM,> 100 µM,,,,,,,selectivity ratio at 336 h [5]: 1; pEC50 (Human alphaherpesvirus 3 [6]): 4.69; EC90 (Human alphaherpesvirus 3 [6]): > 150 µM; CC50 [7]: > 150 µM; selectivity ratio at 336 h [8]: > 7
CC(CO)(Cn1cnc2c(N)ncnc21)OCP(=O)(O)O (racemic),6.09,,,,,< 3.45,< 3.45,> 352 µM,1,1,21.8 µM,,3.94,3.50,4.51,4.43,> 315 µM,> 100 µM,CC50 at 72 h [25]: 205 µM
CC(CO)(Cn1ccc(N)nc1=O)OCP(=O)(O)O (racemic),< 4.00,,,,,< 3.37,< 3.37,> 426 µM,1,1,> 100 µM,,4.60,4.43,4.73,4.34,> 341 µM,> 100 µM,CC50 at 72 h [25]: > 341 µM
CC(CO)(Cn1ccc(=O)[nH]c1=O)OCP(=O)(O)O (racemic),< 4.00,,,,,< 3.37,< 3.37,> 425 µM,1,1,> 100 µM,,3.59,3.73,3.57,3.47,> 340 µM,> 100 µM,
Nc1nc2c(ncn2COCCO)c(=O)[nH]1 [ACYCLOVIR],,,,,,,,,,,,,5.64,5.68,,,> 444 µM,,CC50 at 72 h [25]: > 444 µM
O=c1[nH]c(=O)n([C@H]2C[C@H](O)[C@@H](CO)O2)cc1/C=C/Br [BRIVUDINE],,,,,,,,,,,,,6.54,6.47,7.15,4.44,> 300 µM,,CC50 at 72 h [25]: > 300 µM
Nc1nc2c(ncn2COC(CO)CO)c(=O)[nH]1 [GANCICLOVIR],,,6.07,74.2 µM,> 150 µM,,,,,,,,,,,,,,
Nc1ccn([C@@H]2CS[C@H](CO)O2)c(=O)n1 [LAMIVUDINE],7.40,2120 µM,,,,5.60,5.00,> 87.2 µM,> 24,> 9,0.13 µM,2120 µM,,,,,,> 2 µM,pEC50 (Hepatitis B virus [15]): 7.40; EC90 (Hepatitis B virus [15]): 0.12 µM; pEC50 (Hepatitis B virus [16]): 6.89; EC90 (Hepatitis B virus [16]): 0.35 µM; selectivity ratio [17]: 57400; selectivity ratio [18]: 16200

# Reference: ChEMBL document CHEMBL5120909, “Reshaping an Acyclic Nucleoside Phosphonate into a Selective Anti-hepatitis B Virus Compound” (J Med Chem, 2022)
